Test system: MDR isolate of H. contortus, exsheathed L3 larvae
Test: Larval motility assay (LMA), Worminator
Type: cell-based, Haemonchus contortus
Excerpt: The H. contortus isolates used were TxPh-2011-S (Texas A&M University, USA) and UGA MDR 2020 (University of Georgia Athens, USA). TxPh-2011-S (Texas A&M University, USA) was originally isolated from Pronghorn antelope in West Texas in 2011 and is fully drug susceptible, phenotypically determined by the DrenchRite larval development assay (LDA; Microbial Screening Technologies, Kemps Creek, Australia). To establish this as a laboratory isolate, it was initially passaged in goats at Texas A&M University and then at The University of Georgia using both goats and sheep, and it is currently maintained in lambs at Louisiana State University. A nemabiome assay ([69]) was conducted at the University of Calgary to confirm that the isolate is 100% H. contortus. The UGA MDR 2020 (University of Georgia Athens, USA) isolate is resistant to ivermectin, benzimidazoles, levamisole, and moxidectin, as determined by the DrenchRite LDA. To establish this as a laboratory isolate, feces collected from a sheep farm in Georgia with known history of multiple anthelmintic resistance were cultured. Two donor goats were infected with the larvae recovered, which were morphologically ([70]) identified as 89% H. contortus. A fecal egg count reduction test (FECRT) was then performed in the infected goats. First, a combination treatment with albendazole at 15 mg/kg and ivermectin at 0.4 mg/kg was performed, followed by a treatment with levamisole at 12 mg/kg. Later, and to confirm resistance to moxidectin, another treatment was administered using a dose of 0.4 mg/kg of moxidectin. Posttreatment feces were recovered, coprocultures were established, and L3 larvae were identified as 100% H. contortus. Resistance to all drugs was subsequently confirmed using a DrenchRite assay.
For LMAs, the first phase testing using compounds NSC133100 and NSC177383 was done using the Worminator system in parallel with the LDA. Initial stock solutions of 12.5 mM were prepared for each compound using 100% DMSO as a solvent. Initial stock solutions (25 μL) were then diluted in 475 μL of culture media to yield working stock solutions of 625.00, 156.30, 39.10, 9.80, 2.40, 0.60, 0.20, 0.04, and 0.00 μM in 5% DMSO for each drug. In plate, 200 μL of working stock solutions were then diluted in 800 μL of culture media, yielding concentrations of 125.00, 31.25, 7.81, 1.95, 0.49, 0.12, and 0.00 μM in 1% DMSO. For the second phase of testing, compounds showing anthelmintic activity with the LDA were tested in a second round at higher concentrations than in the first phase of testing. Initial stocks of 50 mM were prepared for compounds NSC133100, NSC177383, NSC145612, and NSC56410 using 100% DMSO as a solvent. Initial stock solutions (25-μL portions) were then diluted in 475 μL of culture media consisting of 65% Lauria-Bertani (LB) (Thermo Fisher Scientific, Branchburg, NJ), 25% NCTC (Sigma-Aldrich), 10% fetal bovine serum (Atlanta Biologicals, Flowery Branch, GA), Pen/Strep (Sigma-Aldrich) at a final concentration of […], and amphotericin B (Sigma-Aldrich) at a final concentration of […]. The working stock solutions yielded concentrations of 2,500.00, 625.00, 156.30, 39.10, 9.80, 2.40, and 0.00 μM in 5% DMSO for each compound. In each well in the plate, 200 μL of working stock solutions were then diluted in 800 μL of culture media, yielding final concentrations of 500.00, 125.00, 31.30, 7.81, 1.95, 0.49, and 0.00 μM in 1% DMSO.
For the motility assays, 24-well plates with inserts were used (Costar, catalog no. 3379; Corning, Inc., Corning, NY). Portions (640 μL) of culture media were added to each well, and approximately 50 exsheathed larvae contained in 160 μL of culture media in each insert. Once pretreatment readings were taken, 160 μL of the drug solution was added to the well, and another 40 μL was added to the insert, reaching the final concentrations described in the protocol above. All concentrations were tested in triplicate. […]

CO[C@@H]1/C=C\O[C@]2(C)Oc3c(C)c(O)c4c(O)c(c(CN(C)C)c(O)c4c3C2=O)NC(=O)/C(C)=C\C=C[C@@H](C)[C@@H](O)[C@H](C)[C@@H](O)[C@H](C)[C@H](OC(C)=O)[C@@H]1C [NSC145612]
Percent inhibition of larval motility (15.625 µM, 1 hour): -10.3% | Percent inhibition of larval motility (15.625 µM, 4 hours): 7.3% | Percent inhibition of larval motility (15.625 µM, 24 hours): 7.0% | Percent inhibition of larval motility (15.625 µM, 48 hours): 8.1% | Percent inhibition of larval motility (15.625 µM, 72 hours): 23.0% | Percent inhibition of larval motility (15.625 µM, 96 hours): 17.4% | Percent inhibition of larval motility (15.625 µM, Initial): 20.3% | Percent inhibition of larval motility (31.25 µM, 1 hour): 20.1% | Percent inhibition of larval motility (31.25 µM, 4 hours): -11.2% | Percent inhibition of larval motility (31.25 µM, 24 hours): 27.2% | Percent inhibition of larval motility (31.25 µM, 48 hours): 21.9% | Percent inhibition of larval motility (31.25 µM, 72 hours): 43.2% | Percent inhibition of larval motility (31.25 µM, 96 hours): 3.9% | Percent inhibition of larval motility (31.25 µM, Initial): 21.0% | Percent inhibition of larval motility (62.5 µM, 4 hours): 32.0% | Percent inhibition of larval motility (62.5 µM, 24 hours): 10.4% | Percent inhibition of larval motility (62.5 µM, 48 hours): 14.1% | Percent inhibition of larval motility (125 µM, 1 hour): 31.7% | Percent inhibition of larval motility (125 µM, 4 hours): 34.3% | Percent inhibition of larval motility (125 µM, 24 hours): 15.7% | Percent inhibition of larval motility (125 µM, 48 hours): 8.1% | Percent inhibition of larval motility (125 µM, 72 hours): 3.0% | Percent inhibition of larval motility (125 µM, 96 hours): -6.9% | Percent inhibition of larval motility (125 µM, Initial): 21.6% | Percent inhibition of larval motility (250 µM, 1 hour): 13.0% | Percent inhibition of larval motility (250 µM, 24 hours): -8.6% | Percent inhibition of larval motility (250 µM, 48 hours): 13.8% | Percent inhibition of larval motility (250 µM, 96 hours): 12.8% | Percent inhibition of larval motility (250 µM, Initial): 25.9% | Percent inhibition of larval motility (500 µM, 1 hour): -19.2% | Percent inhibition of larval motility (500 µM, 4 hours): 0.4% | Percent inhibition of larval motility (500 µM, 24 hours): -12.0% | Percent inhibition of larval motility (500 µM, 48 hours): 14.1% | Percent inhibition of larval motility (500 µM, 72 hours): 9.6% | Percent inhibition of larval motility (500 µM, 96 hours): -5.1% | Percent inhibition of larval motility (500 µM, Initial): 9.3%

Source: paper PMC10269165 (Antimicrobial Agents and Chemotherapy, 2023)
